Data published in patent US7476741B2, “Substituted 4H-chromens, 2H-chromenes, chromans and analogs as activators of caspases and inducers of apoptosis and the use thereof” (Cytovia, Inc., priority 2002, dated 2009).

System: T-47D
Assay: Caspase cascade activation assay (N-(Ac-DEVD)-N'-ethoxycarbonyl-R110 fluorogenic substrate) in T-47D cells
Assay type: cell-based
Details: T-47D human breast cancer cells, 24 h incubation; ratio of net RFU of compound to control
Protocol: (§1) Human breast cancer cell lines T-47D and ZR-75-1 were grown according to media component mixtures designated by American Type Culture Collection +10% FCS (Invitrogen Corporation), in a 5% CO2−95% humidity incubator at 37° C. T-47D and ZR-75-1 cells were maintained at a cell density between 30 and 80% confluency at a cell density of 0.1 to 0.6×10^6 cells/mL. Cells were harvested at 600×g and resuspended at 0.65×10^6 cells/mL into appropriate media +10% FCS. An aliquot of 45 μL of cells was added to a well of a 96-well microtiter plate containing 5 μL of a 10% DMSO in RPMI-1640 media solution containing 0.16 to 10 μM of 4-(3-bromo-4,5-dimethoxyphenyl)-3-cyano-4H-indolo[4,5-b]pyran (Example 1) or other test compound (0.016 to 1 μM final). An aliquot of 45 μL of cells was added to a well of a 96-well microtiter plate containing 5 μL of a 10% DMSO in RPMI-1640 media solution without test compound as the control sample. The samples were mixed by agitation and then incubated at 37° C. for 24 h in a 5% CO2-95% humidity incubator. After incubation, the samples were removed from the incubator and 50 μL of a solution containing 20 μM of N-(Ac-DEVD)-N′-ethoxycarbonyl-R110 (SEQ ID No.:1) fluorogenic substrate (Cytovia, Inc.; U.S. Pat. No. 6,335,429), 20% sucrose (Sigma), 20 mM DTT (Sigma), 200 mM NaCl (Sigma), 40 mM Na PIPES buffer pH 7.2 (Sigma), and 500 μg/mL lysolecithin (Calbiochem) was added. The samples were mixed by agitation and incubated at room temperature. Using a fluorescent plate reader (Model 1420 Wallac Instruments), an initial reading (T=0) was made approximately 1-2 min after addition of the substrate solution, employing excitation at 485 nm and emission at 530 nm, to determine the background fluorescence of the control sample. After the 3 h incubation, the samples were read for fluorescence as above (T=3 h).
(§2) The Relative Fluorescence Unit values (RFU) were used to calculate the sample readings as follows: RFU(T=3h)−Control RFU(T=0)=Net RFU(T=3h)
(§3) The activity of caspase cascade activation was determined by the ratio of the net RFU value for 4-(3-bromo-4,5-dimethoxyphenyl)-3-cyano-4H-indolo[4,5-b]pyran or other test compound to that of control samples. The EC50 (nM) was determined by a sigmoidal dose-response calculation (Prism 2.0, GraphPad Software Inc.).

Row | SMILES | T-47D Ratio (caspase activity)
1 | COC1CC(c2cc(Cl)cc(Cl)c2)c2ccc(N)cc2O1 (stereo not shown) | 1.2
2 | COc1ccc(C2CC(=O)Oc3c2cc(OC)c(OC)c3OC)cc1 (stereo not shown) | 5.7
3 | COc1cc(C2C(C#N)=COc3c2ccc2[nH]ccc32)cc(Br)c1OC (stereo not shown) [Example 1, 4-(3-Bromo-4,5-dimethoxyphenyl)-3-cyano-4H-indolo[4,5-b]pyran] | 7.3
4 | COc1cc(C2C(C#N)=COc3cc(N(C)C)ccc32)cc(Br)c1OC (stereo not shown) [Example 2, 4-(3-Bromo-4,5-dimethoxyphenyl)-3-cyano-7-dimethylamino-4H-chromene] | 5.5
5 | Cn1ccc2c3c(ccc21)C(c1cncc(Br)c1)C(C#N)=CO3 (stereo not shown) [Example 3, 4-(5-Bromo-pyridin-3-yl)-3-cyano-7-methyl-4H-indolo[4,5-b]pyran] | 5.1
6 | COc1cc(C2C(C#N)=COc3c2ccc2c3ccn2C)cc(Br)c1OC (stereo not shown) [Example 4, 4-(3-Bromo-4,5-dimethoxyphenyl)-3-cyano-7-methyl-4H-indolo[4,5-b]pyran] | 5.9
7 | CCn1ccc2c3c(ccc21)C(c1cc(Br)c(OC)c(OC)c1)C(C#N)=CO3 (stereo not shown) [Example 5, 4-(3-Bromo-4,5-dimethoxyphenyl)-3-cyano-7-ethyl-4H-indolo[4,5-b]pyran] | 3.6
8 | N#CC1=COc2ccccc2C1c1ccccc1 (stereo not shown) [Example 6, 3-Cyano-4-phenyl-4H-chromene] | In-active
9 | COc1cc(C2C(C#N)=COc3c2ccc2c3oc(=O)n2C)cc(Br)c1OC (stereo not shown) [Example 7] | 6.7
10 | COc1ccc2c(c1)OC=C(C#N)C2c1cc(OC)c(OC)c(OC)c1 (stereo not shown) [Example 8, 3-Cyano-7-methoxy-4-(3,4,5-trimethoxyphenyl)-4H-chromene] | 6.7
11 | COc1cc(C2=CCOc3cc(N(C)C)ccc32)cc(OC)c1OC [Example 9, 7-Dimethylamino-4-(3,4,5-trimethoxyphenyl)-2H-chromene] | 7.8
12 | COc1cc(C2=C(Cl)COc3cc(N(C)C)ccc32)cc(OC)c1OC [Example 10, 3-Chloro-7-dimethylamino-4-(3,4,5-trimethoxyphenyl)-2H-chromene] | 8.2
13 | COc1ccc2c(c1)OCC(C#N)C2c1cc(OC)c(OC)c(OC)c1 (stereo not shown) [Example 11, 3-Cyano-7-methoxy-4-(3,4,5-trimethoxyphenyl)-chroman] | 9.6
14 | COc1ccc2c(c1)OC(=O)C(C#N)C2c1cc(OC)c(OC)c(OC)c1 (stereo not shown) [Example 13, 3-Cyano-7-methoxy-2-oxo-4-(3,4,5-trimethoxyphenyl)-chroman] | 4.3
15 | COc1cc(C2c3ccc4[nH]ccc4c3OC(=O)C2C#N)cc(Br)c1OC (stereo not shown) [Example 14, 4-(3-Bromo-4,5-dimethoxyphenyl)-3-cyano-2-oxo-pyrrolo[2,3-h]chroman] | 4.8
16 | COc1cc(C2CC(O)Oc3cc(N(C)C)ccc32)cc(Br)c1OC (stereo not shown) [Example 15, 4-(3-Bromo-4,5-dimethoxyphenyl)-7-dimethylamino-2-hydroxy-chroman] | 14.6
17 | COc1cc(C2CC(OC)Oc3cc(N(C)C)ccc32)cc(Br)c1OC (stereo not shown) [Example 16, 4-(3-Bromo-4,5-dimethoxyphenyl)-7-dimethylamino-2-methoxy-chroman] | 6.8
18 | COc1cc(C2CC(OC(C)=O)Oc3cc(N(C)C)ccc32)cc(Br)c1OC (stereo not shown) [Example 17, 2-Acetoxy-4-(3-bromo-4,5-dimethoxyphenyl)-7-dimethylamino-chroman] | 5.2
19 | COc1cc(C2CC(O)Oc3c2ccc2c3ccn2C)cc(Br)c1OC (stereo not shown) [Example 18, 4-(3-Bromo-4,5-dimethoxyphenyl)-2-hydroxy-7-methyl-pyrrolo[2,3-h]chroman] | 6.0
20 | COc1cc(C2CC(OC)Oc3c2ccc2c3ccn2C)cc(Br)c1OC (stereo not shown) [Example 19, 4-(3-Bromo-4,5-dimethoxyphenyl)-2-methoxy-7-methyl-pyrrolo[2,3-h]chroman] | 4.5
21 | COc1cc(C2CC(OC(C)=O)Oc3c2ccc2c3ccn2C)cc(Br)c1OC (stereo not shown) [Example 20, 2-Acetoxy-4-(3-bromo-4,5-dimethoxyphenyl)-7-methyl-pyrrolo[2,3-h]chroman] | 4.7

System: ZR-75-1
Assay: Caspase cascade activation assay (N-(Ac-DEVD)-N'-ethoxycarbonyl-R110 fluorogenic substrate) in ZR-75-1 cells
Assay type: cell-based
Details: ZR-75-1 human breast cancer cells, 24 h incubation; ratio of net RFU of compound to control
Protocol: as §1, §2, §3

Row | SMILES | ZR-75-1 Ratio (caspase activity)
22 | N#CC1=COc2ccccc2C1c1ccccc1 (stereo not shown) [Example 6, 3-Cyano-4-phenyl-4H-chromene] | In-active

Same assay, conditions: ZR-75-1 human breast cancer cells, 24 h incubation; sigmoidal dose-response; read-out: ZR-75-1 EC50 (nM) (potency)

Row | EC50 | SMILES
23 | > 10000 nM | COC1CC(c2cc(Cl)cc(Cl)c2)c2ccc(N)cc2O1 (stereo not shown)
24 | 2650 nM | COc1ccc(C2CC(=O)Oc3c2cc(OC)c(OC)c3OC)cc1 (stereo not shown)
25 | 32 nM | COc1cc(C2C(C#N)=COc3c2ccc2[nH]ccc32)cc(Br)c1OC (stereo not shown) [Example 1, 4-(3-Bromo-4,5-dimethoxyphenyl)-3-cyano-4H-indolo[4,5-b]pyran]
26 | 30 nM | COc1cc(C2C(C#N)=COc3cc(N(C)C)ccc32)cc(Br)c1OC (stereo not shown) [Example 2, 4-(3-Bromo-4,5-dimethoxyphenyl)-3-cyano-7-dimethylamino-4H-chromene]
27 | 3 nM | Cn1ccc2c3c(ccc21)C(c1cncc(Br)c1)C(C#N)=CO3 (stereo not shown) [Example 3, 4-(5-Bromo-pyridin-3-yl)-3-cyano-7-methyl-4H-indolo[4,5-b]pyran]
28 | 2.2 nM | COc1cc(C2C(C#N)=COc3c2ccc2c3ccn2C)cc(Br)c1OC (stereo not shown) [Example 4, 4-(3-Bromo-4,5-dimethoxyphenyl)-3-cyano-7-methyl-4H-indolo[4,5-b]pyran]
29 | 18 nM | CCn1ccc2c3c(ccc21)C(c1cc(Br)c(OC)c(OC)c1)C(C#N)=CO3 (stereo not shown) [Example 5, 4-(3-Bromo-4,5-dimethoxyphenyl)-3-cyano-7-ethyl-4H-indolo[4,5-b]pyran]
30 | 2940 nM | N#CC1=COc2ccccc2C1c1ccccc1 (stereo not shown) [Example 6, 3-Cyano-4-phenyl-4H-chromene]
31 | 14 nM | COc1cc(C2C(C#N)=COc3c2ccc2c3oc(=O)n2C)cc(Br)c1OC (stereo not shown) [Example 7]
32 | 210 nM | COc1ccc2c(c1)OC=C(C#N)C2c1cc(OC)c(OC)c(OC)c1 (stereo not shown) [Example 8, 3-Cyano-7-methoxy-4-(3,4,5-trimethoxyphenyl)-4H-chromene]
33 | 280 nM | COc1cc(C2=C(Cl)COc3cc(N(C)C)ccc32)cc(OC)c1OC [Example 10, 3-Chloro-7-dimethylamino-4-(3,4,5-trimethoxyphenyl)-2H-chromene]
34 | 101 nM | COc1ccc2c(c1)OCC(C#N)C2c1cc(OC)c(OC)c(OC)c1 (stereo not shown) [Example 11, 3-Cyano-7-methoxy-4-(3,4,5-trimethoxyphenyl)-chroman]
35 | 67 nM | COc1ccc2c(c1)OC(=O)C(C#N)C2c1cc(OC)c(OC)c(OC)c1 (stereo not shown) [Example 13, 3-Cyano-7-methoxy-2-oxo-4-(3,4,5-trimethoxyphenyl)-chroman]
36 | 278 nM | COc1cc(C2c3ccc4[nH]ccc4c3OC(=O)C2C#N)cc(Br)c1OC (stereo not shown) [Example 14, 4-(3-Bromo-4,5-dimethoxyphenyl)-3-cyano-2-oxo-pyrrolo[2,3-h]chroman]
37 | 15 nM | COc1cc(C2CC(O)Oc3cc(N(C)C)ccc32)cc(Br)c1OC (stereo not shown) [Example 15, 4-(3-Bromo-4,5-dimethoxyphenyl)-7-dimethylamino-2-hydroxy-chroman]
38 | 275 nM | COc1cc(C2CC(OC)Oc3cc(N(C)C)ccc32)cc(Br)c1OC (stereo not shown) [Example 16, 4-(3-Bromo-4,5-dimethoxyphenyl)-7-dimethylamino-2-methoxy-chroman]
39 | 7.8 nM | COc1cc(C2CC(O)Oc3c2ccc2c3ccn2C)cc(Br)c1OC (stereo not shown) [Example 18, 4-(3-Bromo-4,5-dimethoxyphenyl)-2-hydroxy-7-methyl-pyrrolo[2,3-h]chroman]
40 | 48 nM | COc1cc(C2CC(OC)Oc3c2ccc2c3ccn2C)cc(Br)c1OC (stereo not shown) [Example 19, 4-(3-Bromo-4,5-dimethoxyphenyl)-2-methoxy-7-methyl-pyrrolo[2,3-h]chroman]

Row | SMILES | EC50
41 | COc1cc(C2=CCOc3cc(N(C)C)ccc32)cc(OC)c1OC [Example 9, 7-Dimethylamino-4-(3,4,5-trimethoxyphenyl)-2H-chromene] | 177 nM
42 | COc1cc(C2CC(OC(C)=O)Oc3cc(N(C)C)ccc32)cc(Br)c1OC (stereo not shown) [Example 17, 2-Acetoxy-4-(3-bromo-4,5-dimethoxyphenyl)-7-dimethylamino-chroman] | 29 nM
43 | COc1cc(C2CC(OC(C)=O)Oc3c2ccc2c3ccn2C)cc(Br)c1OC (stereo not shown) [Example 20, 2-Acetoxy-4-(3-bromo-4,5-dimethoxyphenyl)-7-methyl-pyrrolo[2,3-h]chroman] | 3 nM
